Results on four molecules are retold here after patent US11731946B2, “Broad spectrum antivirulence, anti-persistence compounds” (priority 2017, dated 2023).

The IC50 is the concentration at which inhibition is half-maximal. Broadly, the Kd is the concentration at which binding is half-saturated. The low end stands for tighter binding, the high end for weaker binding.

One assay deals with MvfR regulon. As to the kind of experiment: Quantification of pyocyanin (OD520nm of chloroform-extracted cultures). In kind it is cell-based, P. aeruginosa. The conditions noted are these: Pseudomonas aeruginosa, read-out: IC50 pyocyanin (μM).
Regarding `N#Cc1ccc(NC(=O)CC(=O)Nc2ccc(C#N)cc2)cc1` [Compound 57], the concentration for half-maximal inhibition (IC50) stood at 1.37 µM.

For the molecule `O=C(CC(=O)Nc1ccc([N+](=O)[O-])cc1)Nc1ccc(Oc2ccccc2)cc1` [Compound 73], the IC50 is 0.398 µM.

The same assay, now with this note: Pseudomonas aeruginosa, read-out: pyocyanin @1 uM (%), compound at 1 uM.
Take `O=C(CC(=O)Nc1ccc([N+](=O)[O-])cc1)Nc1ccc(Oc2ccccc2)cc1` [Compound 73]: the activity at 1 µM is 9.2%.

In the case of `N#Cc1ccc(NC(=O)CC(=O)Nc2ccc(C#N)c(Cl)c2)cc1` [Compound 110], the activity at 1 µM turned out to be 64.7%.

The same assay, now with this note: Pseudomonas aeruginosa, read-out: pyocyanin @10 uM (%), compound at 10 uM.
As for `O=C(CC(=O)Nc1ccc([N+](=O)[O-])cc1)Nc1ccc(Oc2ccccc2)cc1` [Compound 73], the activity at 10 µM turned out to be 5.2%.

For the molecule `N#Cc1ccc(NC(=O)CC(=O)Nc2ccc(C#N)c(Cl)c2)cc1` [Compound 110], the activity at 10 µM was found to be 6.8%.

Staying with this assay, now noted: Pseudomonas aeruginosa, read-out: pyocyanin @50 uM (%), compound at 50 uM.
Consider `N#Cc1ccc(NC(=O)CC(=O)Nc2ccc(C#N)cc2)cc1` [Compound 57], for which the activity at 50 µM turned out to be 8.07%.

Turning to `N#Cc1ccc(NC(=S)CC(=S)Nc2ccc(F)cc2)cc1` [Compound 60], the activity at 50 µM came out at 106%.

Consider `O=C(CC(=O)Nc1ccc([N+](=O)[O-])cc1)Nc1ccc(Oc2ccccc2)cc1` [Compound 73], for which the activity at 50 µM came to 5.9%.

For the molecule `N#Cc1ccc(NC(=O)CC(=O)Nc2ccc(C#N)c(Cl)c2)cc1` [Compound 110], the activity at 50 µM was 4.12%.

The test system of another assay is MvfR regulon. As to the kind of experiment: pqsA gene expression (pqsA-GFP reporter). Type of assay: cell-based, P. aeruginosa. Particulars: Pseudomonas aeruginosa, read-out: IC50 pqsA (μM).
Turning to `N#Cc1ccc(NC(=O)CC(=O)Nc2ccc(C#N)cc2)cc1` [Compound 57], the IC50 amounted to 0.94 µM.

Consider `O=C(CC(=O)Nc1ccc([N+](=O)[O-])cc1)Nc1ccc(Oc2ccccc2)cc1` [Compound 73], for which the half-maximal inhibitory concentration (IC50) is 0.21 µM.

The assay is the same for the next values; noted with them: Pseudomonas aeruginosa, read-out: pqsA @10 uM (%), compound at 10 uM.
Take `N#Cc1ccc(NC(=S)CC(=S)Nc2ccc(F)cc2)cc1` [Compound 60]: the activity at 10 µM worked out at 117%.

With `O=C(CC(=O)Nc1ccc([N+](=O)[O-])cc1)Nc1ccc(Oc2ccccc2)cc1` [Compound 73], the activity at 10 µM stood at 1.95%.

For `N#Cc1ccc(NC(=O)CC(=O)Nc2ccc(C#N)c(Cl)c2)cc1` [Compound 110], the activity at 10 µM was found to be 1.75%.

Staying with this assay, now noted: Pseudomonas aeruginosa, read-out: pqsA @50 uM (%), compound at 50 uM.
With `N#Cc1ccc(NC(=O)CC(=O)Nc2ccc(C#N)cc2)cc1` [Compound 57], the activity at 50 µM came to 8.3%.

Consider `N#Cc1ccc(NC(=S)CC(=S)Nc2ccc(F)cc2)cc1` [Compound 60], for which the activity at 50 µM is 80.7%.

On to `O=C(CC(=O)Nc1ccc([N+](=O)[O-])cc1)Nc1ccc(Oc2ccccc2)cc1` [Compound 73], for which the activity at 50 µM worked out at 8.9%.

Take `N#Cc1ccc(NC(=O)CC(=O)Nc2ccc(C#N)c(Cl)c2)cc1` [Compound 110]: the activity at 50 µM was 5.61%.

The next assay has as its system MvfR regulon. The assay can be described thus: LC/MS quantification of HAQs and related molecules in bacterial culture supernatants. In kind it is cell-based, P. aeruginosa. Particulars: Pseudomonas aeruginosa, read-out: 2-AA @50 uM.
As to `N#Cc1ccc(NC(=O)CC(=O)Nc2ccc(C#N)cc2)cc1` [Compound 57], the activity at 50 µM was determined as 20%.

For `N#Cc1ccc(NC(=S)CC(=S)Nc2ccc(F)cc2)cc1` [Compound 60], the activity at 50 µM is 104%.

Still in this assay, the particulars now being: Pseudomonas aeruginosa, read-out: AA @50 uM.
With `N#Cc1ccc(NC(=O)CC(=O)Nc2ccc(C#N)cc2)cc1` [Compound 57], the activity at 50 µM came out at 531%.

On to `N#Cc1ccc(NC(=S)CC(=S)Nc2ccc(F)cc2)cc1` [Compound 60], for which the activity at 50 µM stood at 28.2%.

Staying with this assay, now noted: Pseudomonas aeruginosa, read-out: DHQ @50 uM.
Turning to `N#Cc1ccc(NC(=O)CC(=O)Nc2ccc(C#N)cc2)cc1` [Compound 57], the activity at 50 µM stood at 31.9%.

Turning to `N#Cc1ccc(NC(=S)CC(=S)Nc2ccc(F)cc2)cc1` [Compound 60], the activity at 50 µM came out at 82.9%.

The same assay, now with this note: Pseudomonas aeruginosa, read-out: HHQ @50 uM (%).
As to `N#Cc1ccc(NC(=O)CC(=O)Nc2ccc(C#N)cc2)cc1` [Compound 57], the activity at 50 µM stood at 18.1%.

Consider `N#Cc1ccc(NC(=S)CC(=S)Nc2ccc(F)cc2)cc1` [Compound 60], for which the activity at 50 µM was determined as 66.6%.

The assay is the same for the next values; noted with them: Pseudomonas aeruginosa, read-out: HQNO @50 uM (%).
For the molecule `N#Cc1ccc(NC(=O)CC(=O)Nc2ccc(C#N)cc2)cc1` [Compound 57], the activity at 50 µM turned out to be 36%.

In the case of `N#Cc1ccc(NC(=S)CC(=S)Nc2ccc(F)cc2)cc1` [Compound 60], the activity at 50 µM was 77%.

The same assay, now with this note: Pseudomonas aeruginosa, read-out: PQS @50 uM (%).
Regarding `N#Cc1ccc(NC(=O)CC(=O)Nc2ccc(C#N)cc2)cc1` [Compound 57], the activity at 50 µM is 22.3%.

Turning to `N#Cc1ccc(NC(=S)CC(=S)Nc2ccc(F)cc2)cc1` [Compound 60], the activity at 50 µM amounted to 83.6%.

The target of a further assay is T1, MvfR (Pseudomonas aeruginosa, UniProt Q9I4X0).
T1 construct: made in house
T1 sequence (Q9I4X0 91-332): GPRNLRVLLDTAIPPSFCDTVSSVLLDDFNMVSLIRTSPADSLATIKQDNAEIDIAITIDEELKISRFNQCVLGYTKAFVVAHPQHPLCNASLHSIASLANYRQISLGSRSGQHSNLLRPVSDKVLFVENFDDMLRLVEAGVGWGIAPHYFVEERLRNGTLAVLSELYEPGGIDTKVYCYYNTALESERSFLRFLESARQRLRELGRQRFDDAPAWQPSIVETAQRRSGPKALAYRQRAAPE
As to the kind of experiment: Surface plasmon resonance (SPR) binding to purified MvfR co-inducer binding domain. Further details: species or system P. aeruginosa. The conditions noted are these: SPR. As for the experimental part: Compounds identified to interfere with MvfR were confirmed for the direct physical interaction with this protein. Using SPR, the percentage of compound's binding to the purified MvfR protein was analyzed and used to determine the binding parameters (KD, kon and koff)—thus determining the kinetic of interaction with MvfR.
The recombinant MvfR co-inducer binding domain was purified using Ni-NTA chromatography, as previously reported (see e.g., Xiao et al, Microbiology, 2006, 152:1679-1686; Starkey et al, PLoS Pathog. 2014, 10:e1004321; and Kefala et al, Acta. Crystallogr. Sect. F. Struct. Biol. Cryst. Commun. 2012, 68:695-697). The purified protein was immobilized with the amine coupling method at a target level of 5000 RU on Chip. SPR was performed according to previously reported procedures (see e.g., Starkey et al, PLoS Pathog. 2014, 10:e1004321; Maura et al, ACS Chemical Biology, 2017, 12:1435-1443; and Kitao et al, MBIO, in press). […] Table 3 lists the steady-state KD data measured by SPR.
In general terms: In SPR one partner is held on a chip, and binding of the other changes the refractive index at the surface.
Take `N#Cc1ccc(NC(=O)CC(=O)Nc2ccc(C#N)cc2)cc1` [Compound 57]: the “Signal Intensity Rmax” value stood at 27.05 and the “binding intensity relative to parent Compound 1” value was determined as 40 times.

Turning to `O=C(CC(=O)Nc1ccc([N+](=O)[O-])cc1)Nc1ccc(Oc2ccccc2)cc1` [Compound 73], the “Signal Intensity Rmax” value was 33.31.

Staying with this assay, now noted: Steady State Binding Affinity KD (μM), SPR, steady state.
For `N#Cc1ccc(NC(=O)CC(=O)Nc2ccc(C#N)cc2)cc1` [Compound 57], the affinity, expressed as Kd, was 0.286 µM.

`O=C(CC(=O)Nc1ccc([N+](=O)[O-])cc1)Nc1ccc(Oc2ccccc2)cc1` [Compound 73]: the Kd was found to be 0.755 µM.

The same assay, now with this note: Steady State Binding Affinity KD [M], SPR, steady state.
Turning to `N#Cc1ccc(NC(=O)CC(=O)Nc2ccc(C#N)cc2)cc1` [Compound 57], the Kd was found to be 0.286 µM.

For the molecule `O=C(CC(=O)Nc1ccc([N+](=O)[O-])cc1)Nc1ccc(Oc2ccccc2)cc1` [Compound 73], the Kd turned out to be 0.755 µM. Compared with the last molecule, the Kd is about 2.6-fold higher.

The assay is the same for the next values; noted with them: mean KD value, SPR; mean over the compounds named.
As to `N#Cc1ccc(NC(=O)CC(=O)Nc2ccc(C#N)cc2)cc1` [Compound 57], the Kd is ~0.25 µM.

Consider `N#Cc1ccc(NC(=O)CC(=O)Nc2ccc(C#N)c(Cl)c2)cc1` [Compound 110], for which the equilibrium dissociation constant (Kd) came to 0.25 µM.
